Values of other authors, collected in paper PMC6026185 (Scientific Reports, 2018).

Key:
mNKCC2 isoform A = system: mNKCC2 isoform A; set-up: method as in ref Payne et al.[57]; Isenring et al.[58]; Plata et al.[59]; Carota et al.[56]; Lykke et al.[60]; Lykke et al.[29]; details: Xenopus oocytes; ref Payne et al.[57]; Isenring et al.[58]; Plata et al.[59]; Carota et al.[56]; Lykke et al.[60]; Lykke et al.[29]; read-out: IC50 (µM) NKCC2 (mA); cited from earlier work
hNKCC1A = biological target: T1, hNKCC1A (Homo sapiens, UniProt P55011); set-up: method as in ref Payne et al.[57]; Isenring et al.[58]; Plata et al.[59]; Carota et al.[56]; Lykke et al.[60]; Lykke et al.[29]; details: Xenopus oocytes; activated state; ref Payne et al.[57]; Isenring et al.[58]; Plata et al.[59]; Carota et al.[56]; Lykke et al.[60]; Lykke et al.[29]; read-out: IC50 (µM) NKCC1 (hA); cited from earlier work
T1 construct: Full-length NKCC1 (NKCC1A) comprises ~1200 amino acids; expressed in transfected cells; host or cells: Xenopus laevis oocytes injected with cRNA (pXOOM vector)
T1 sequence (P55011 1-1212): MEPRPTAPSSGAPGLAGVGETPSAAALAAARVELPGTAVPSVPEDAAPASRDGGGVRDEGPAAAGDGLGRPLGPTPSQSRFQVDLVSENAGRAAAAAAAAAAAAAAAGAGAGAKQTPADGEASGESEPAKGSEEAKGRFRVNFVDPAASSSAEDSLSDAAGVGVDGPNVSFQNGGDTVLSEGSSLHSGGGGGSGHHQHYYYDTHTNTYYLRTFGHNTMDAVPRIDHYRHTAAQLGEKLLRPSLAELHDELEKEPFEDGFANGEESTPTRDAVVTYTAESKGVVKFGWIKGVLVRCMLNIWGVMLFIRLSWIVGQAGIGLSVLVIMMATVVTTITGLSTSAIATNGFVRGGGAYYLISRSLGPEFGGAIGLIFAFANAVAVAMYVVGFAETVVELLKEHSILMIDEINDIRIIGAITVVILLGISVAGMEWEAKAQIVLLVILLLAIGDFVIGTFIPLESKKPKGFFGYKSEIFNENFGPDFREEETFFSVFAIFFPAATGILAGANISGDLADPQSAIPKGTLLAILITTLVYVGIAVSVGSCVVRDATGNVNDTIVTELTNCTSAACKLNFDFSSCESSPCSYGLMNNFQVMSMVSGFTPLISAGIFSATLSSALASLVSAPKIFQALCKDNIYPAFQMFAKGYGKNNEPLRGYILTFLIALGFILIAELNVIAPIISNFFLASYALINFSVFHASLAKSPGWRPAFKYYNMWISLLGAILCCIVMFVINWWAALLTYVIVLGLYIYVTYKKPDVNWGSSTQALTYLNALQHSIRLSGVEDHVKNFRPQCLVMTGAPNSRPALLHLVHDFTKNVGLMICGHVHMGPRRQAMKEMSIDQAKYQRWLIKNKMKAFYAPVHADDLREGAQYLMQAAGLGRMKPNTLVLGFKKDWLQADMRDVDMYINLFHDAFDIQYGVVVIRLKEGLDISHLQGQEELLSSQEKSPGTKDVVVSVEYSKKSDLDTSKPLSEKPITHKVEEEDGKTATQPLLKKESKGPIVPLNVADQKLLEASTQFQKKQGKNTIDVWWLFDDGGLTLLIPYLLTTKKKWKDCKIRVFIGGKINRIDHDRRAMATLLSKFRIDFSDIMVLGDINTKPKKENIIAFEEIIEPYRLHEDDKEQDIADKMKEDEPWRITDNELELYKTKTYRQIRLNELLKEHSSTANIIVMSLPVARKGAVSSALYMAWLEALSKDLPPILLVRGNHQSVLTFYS

hNKCC1 = system: hNKCC1; set-up: method as in Gill et al.[47]; details: Rb+ flux, Ion Channel Reader technology, HEK cell line; ref Gill et al.[47]; cited from earlier work
hNKCC2 isoform F = details: Xenopus oocytes; ref Payne et al.[57]; Isenring et al.[58]; Plata et al.[59]; Carota et al.[56]; Lykke et al.[60]; Lykke et al.[29]; read-out: IC50 (µM) NKCC2 (hF); cited from earlier work
mNKCC2 isoform B = system: mNKCC2 isoform B; set-up: method as in ref Payne et al.[57]; Isenring et al.[58]; Plata et al.[59]; Carota et al.[56]; Lykke et al.[60]; Lykke et al.[29]; details: Xenopus oocytes; ref Payne et al.[57]; Isenring et al.[58]; Plata et al.[59]; Carota et al.[56]; Lykke et al.[60]; Lykke et al.[29]; read-out: IC50 (µM) NKCC2 (mB); cited from earlier work

SMILES: CCCCNc1cc(C(=O)O)cc(S(N)(=O)=O)c1Oc1ccccc1 [Bumetanide]
- IC50 (mNKCC2 isoform A): 2 µM
- IC50 (hNKCC1A): 0.68 µM
- IC50 (hNKCC1): 1160 nM
- IC50 (hNKCC2 isoform F): 0.16 µM
- IC50 (mNKCC2 isoform B): 0.6 µM
